SMILES strings stand for the structures.

The test system of series [1] is primary rat cardiomyocytes. The series is described as follows: Phenylephrine (PE)-induced hypertrophy in primary cardiomyocytes (phalloidin cell area, RT-PCR, western blot). In kind it is cell-based. In general terms: Immunoblotting shows a protein as a band on a membrane.
Experimental: The magnitude of cardiac hypertrophy was then evaluated by directly measuring the cell area after Alexa Fluor 488 phalloidin staining.
Primary cultures of cardiac myocytes were prepared from neonatal rat hearts using the Neonatal Heart Dissociation Kit (MACS, Germany) according to the manufacturer's protocol. Cardiomyocyte cultures were plated in gelatin‐coated plates in a plating medium containing 10% serum. After 24 h of plating, the medium was then replaced with a serum‐free maintenance medium and incubated for another 24 h before being used for further study.
For phenylephrine (PE)‐mediated cardiac hypertrophy, cardiomyocytes cultured in 6‐well plates were stimulated with PE (50 µmol) for 48 h in serum‐free medium with or without Ext.R or HBT (50 µmol) treatment. Cardiomyocytes were lysed in cell lysis buffer to isolate protein or total RNA for western blotting or PCR analysis.
Phenylephrine (PE) was obtained from Aladdin.
Phalloidin Staining and Immunofluorescence
To determine phenylephrine-induced hypertrophy, Alexa Fluor 488 Phalloidin (Cell Signaling) was used to fluorescently stain the cytoskeleton by the binding of phalloidin to F­actin. In brief, cells were fixed for 15 min using 4% paraformaldehyde then rinsed three times in PBS.
Following incubation of Alexa Fluor 488 Phalloidin and Hoechst for 15 min at room temperature, cells were rinsed once with PBS. Images were carried out using an ImageXpress Micro® Confocal High-Content Imaging System (Molecular Devices).
Series [2] relates to SGK1(S422D)-transfected primary cardiomyocytes. In words: S422D SGK1-transfected primary cardiac myocytes (western blot, confocal microscopy). It is filed as cell-based, rat. As for the experimental part:
Figure 5 HBT blocks induction of cardiac hypertrophic responses and the SGK1/FoxO1 signaling pathway. A) Cardiomyocytes were treated with 50 µmol PE in the presence or absence of Ext.R (50 µg mL^−1) or HBT (50 µmol) for 48 h. Cardiomyocytes were identified by cytoskeleton staining through the binding of phalloidin to F‐actin (green). Images were acquired using an ImageXpress Micro Confocal High‐Content Imaging System (Molecular Devices), with a 40 × PlanFluor objective. Relative cell area was quantified by the analysis module of […] High‐Content Image and Analysis Software (Molecular Devices). Control group (Ctrl), PE group, PE plus Ext.R group (Ext.R), and PE plus HBT group (HBT), n = 3 independent experiments, Scale bar, 50 µm. B,C) Quantification of relative ANP and BNP in cardiomyocytes treated with Ext.R or HBT, n = 3 independent experiments. D) Western blot analysis of related proteins in PE‐treated cardiomyocytes, n = 3–4 independent experiments. E) Co‐IP and western blot analysis of SGK1‐FoxO1 interaction in cardiomyocytes, n = 3 independent experiments. F) Western blot analysis of related proteins in nontransfected (control adenovirus) and in ^S422DSGK1‐transfected primary cardiac myocytes treated with DMSO as solvent control (^S422DSGK1‐transf. group) or HBT (50 µmol, ^S422DSGK1‐transf.+HBT group), n = 3 independent experiments. G) Confocal microscopy of nuclear translocation of FoxO1 in nontransfected (control adenovirus), ^S422DSGK1‐transfected cardiomyocytes treated with HBT (50 µmol) or DMSO as solvent control. Green signal represents FoxO1 and white arrow represents the translocation of FoxO1 to nuclei, n = 3 independent experiments, Scale bar, 25 µm. All data were analyzed using one‐way ANOVA and data were expressed as means ± SD, ##p < 0.01 versus Ctrl group, *p < 0.05, **p < 0.01 versus PE group or ^S422DSGK1‐transf. group.
(§1) In the present study, we studied HBT's effect on protein binding between SGK1 and FoxO1 by coimmunoprecipitation (Figure 5E). […] Nevertheless, as previously reported,^[ [30] ^] […] Supportively, after transfection with the SGK1(S422D) plasmid, we consistently detected increased cytoplasmic signal of FoxO1 compared to nontransfected cells in which the majority of FoxO1 signal was distributed in the nucleus.
SGK1 mutant plasmids and adenovirus were constructed by Vigene Bioscience. All the transfection assays were performed using Lipofectamine 2000 according to the manufacturer's protocol. Adenovirus (Ad‐^S422DSGK1) was diluted in DMEM and administered at a dose of 100 MOI in primary cardiomyocytes.

A further series concerns the target T1, SGK1-FoxO1 interaction (Rattus norvegicus, UniProt Q06226).
T1 construct: endogenous in cells; host or cells: primary neonatal rat cardiomyocytes
T1 sequence (Q06226 1-430): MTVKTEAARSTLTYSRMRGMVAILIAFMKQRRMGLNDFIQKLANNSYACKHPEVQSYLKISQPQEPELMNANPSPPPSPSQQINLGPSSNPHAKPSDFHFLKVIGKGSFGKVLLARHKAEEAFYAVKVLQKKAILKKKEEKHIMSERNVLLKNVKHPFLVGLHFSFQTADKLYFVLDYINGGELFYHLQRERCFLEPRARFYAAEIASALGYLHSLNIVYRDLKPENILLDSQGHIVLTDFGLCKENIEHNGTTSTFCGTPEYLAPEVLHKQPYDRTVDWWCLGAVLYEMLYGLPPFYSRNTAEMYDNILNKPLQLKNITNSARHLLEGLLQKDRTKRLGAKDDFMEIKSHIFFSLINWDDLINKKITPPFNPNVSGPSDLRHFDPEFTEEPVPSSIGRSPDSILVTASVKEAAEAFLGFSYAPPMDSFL
The series is described as follows: Co-immunoprecipitation of SGK1 and FoxO1 in cardiomyocytes. In kind it is cell-based. The following applies: coimmunoprecipitation. As for the experimental part:
as §1
For the endogenous interaction assay, cardiomyocytes were treated with HBT or vehicle. After 24 h, cells were lysed with cell lysis buffer contained PMSF (Phenylmethylsulfonyl fluoride, a protease inhibitor). Protein extracts were harvested and immunoprecipitated with anti‐SGK1 or anti‐IgG antibody and protein A/G beads, and then measured by western blotting analysis.

Another series concerns control mice. In words: HBT in control mice (safety). In kind it is in vivo. As for the experimental part:
Finally, we evaluate the safety and pharmacokinetics of HBT to ensure its druggability. […] Single dose administration of HBT at 40 mg kg^−1 was uptaken rapidly with a maximal plasma concentration of ≈6.73 ng mL^−1 after 10 min (Figure S14A, Supporting Information).
Figure S12. The mice were divided into two groups: Sham, Sham mice treated with HBT (Ctrl + HBT). (A) Schedule of animal treatments. (B) Heart weight/Body weight ratio (HW/BW) was detected in Ctrl and Ctrl + HBT group. (C-D) Echocardiography assessments were performed in the two groups. n=10-12. (E) HE in different groups of mice. n=4, Scale bar=50 μm. (F) The phosphorylation level of SGK1 in myocardial tissues in the two groups (Ctrl, Ctrl + HBT), n=4. Data were analyzed using unpaired two-tailed t test and data were expressed as means ± SD, ns: no significant.
(1 picture or pasted object on this page, not shown here)
Figure S13. Serum level of biochemical markers in mice of Ctrl and Ctrl + HBT groups. Data were analyzed using unpaired two-tailed t test and data were expressed as means ± SD, ns: no […]
Figure S14. Plasma concentration (A) and in vivo distribution (B) of HBT after single oral administration with dosage of 40mg/kg rat weight (n=5-6). The quantitation of HBT was performed by LC-MS/MS analysis. […]

Consider `O=c1c(O)c(-c2ccc(O)cc2)oc2c(O)c(O)cc(O)c12` [HBT, herbacetin], for which, in series [1] (50 µmol PE 48 h, Ext.R 50 µg mL−1 or HBT 50 µmol), the “PE-induced hypertrophy, cardiomyocyte cell area” value is recorded as “attenuate PE‐induced hypertrophy”. In addition, the “transcriptional level of ANP and BNP” value in series [1] (50 µmol PE, Ext.R or HBT) is given as “inhibited”. Further, in series [1] (PE stimulation, western blot), the “phosphorylation of SGK1 and FoxO1” value was “significantly reduce”; the “protein expression of ACTA1, BNP and Myosin” value is “significantly reduced”. The “phosphorylation level of NF-κB p65 (Ser536)” value in series [1] (PE-treated cardiomyocytes) is recorded as “did not affect”. Moreover, the “phosphorylation of Nedd4l” value in series [1] (induced by PE) is given as “reduce the phosphorylation”. Moreover, the “expression of STIM1” value in series [2] (HBT 50 µmol) was “moderately inhibited”. For the same compound, the FoxO1 phosphorylation result in series [2] (SGK1(S422D) expression, HBT 50 µmol) was “reverse the alternation”. Further, the FoxO1 subcellular localization result in series [2] (SGK1(S422D) transfection, HBT 50 µmol, confocal microscopy) is “restrain FoxO1 in the nucleus”. Further, the “level of Orai1” value in series [2] (constitutively expressed SGK1, HBT 50 µmol) is “significantly inhibited”. Moreover, in series [2] (continuously-activated form of SGK1, HBT 50 μmol), the “phosphorylation of NDRG1” value is “reduce the phosphorylation”. In addition, the “direct binding between SGK1 and FoxO1” value on SGK1-FoxO1 interaction is “did not detect significant impact”. Further, the “heart weight, cardiac function, cardiac histopathology” value in the series with control mice (control mice) is recorded as “no adverse effect”. Moreover, the “serum level of regular biomarkers (ALT, AST, TCHO)” value in the series with control mice (control versus HBT-treated mice) was “no significant difference”.

For the origin of these results see PMC8805583, “Discovery of Herbacetin as a Novel SGK1 Inhibitor to Alleviate Myocardial Hypertrophy” (Advanced Science, 2021).
